Measured values: EP4568957B1, “SUBSTITUTED PHENYL OXOOXAZOLYL PIPERIDINE DIONE COMPOUNDS” (Bristol-Myers Squibb Company, priority 2023, dated 2025)

Columns and labels:
Assay in all cases: Human Regulatory T Cell Degradation Assay
Type in all cases: cell-based
Details in all cases: human regulatory T cells, 20 hours; for DC50: vs DMSO alone
IKZF4 Eos = molecular target: T1, IKZF4 Eos (Homo sapiens, UniProt Q96SW2+Q9H2S9)
T1 construct: endogenous in cells; host or cells: primary human CD4+CD127lowCD25+ Treg cells from healthy leukopaks
T1 sequence (Q9H2S9 whole entry): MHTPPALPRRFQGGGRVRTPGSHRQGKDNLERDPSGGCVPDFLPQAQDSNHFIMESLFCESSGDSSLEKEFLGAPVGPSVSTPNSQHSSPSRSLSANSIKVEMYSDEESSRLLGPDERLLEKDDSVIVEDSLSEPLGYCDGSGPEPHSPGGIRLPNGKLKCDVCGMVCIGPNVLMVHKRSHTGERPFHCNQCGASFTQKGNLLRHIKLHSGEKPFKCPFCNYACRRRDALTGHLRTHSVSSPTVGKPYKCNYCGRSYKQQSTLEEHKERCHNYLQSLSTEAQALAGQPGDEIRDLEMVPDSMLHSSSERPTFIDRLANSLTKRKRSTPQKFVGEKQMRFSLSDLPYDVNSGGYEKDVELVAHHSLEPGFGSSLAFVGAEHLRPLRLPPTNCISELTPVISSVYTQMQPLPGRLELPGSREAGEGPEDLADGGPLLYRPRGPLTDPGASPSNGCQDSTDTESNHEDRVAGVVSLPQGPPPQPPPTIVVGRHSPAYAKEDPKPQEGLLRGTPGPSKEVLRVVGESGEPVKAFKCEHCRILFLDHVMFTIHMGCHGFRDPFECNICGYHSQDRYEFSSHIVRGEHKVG
T1 sequence (Q96SW2 whole entry): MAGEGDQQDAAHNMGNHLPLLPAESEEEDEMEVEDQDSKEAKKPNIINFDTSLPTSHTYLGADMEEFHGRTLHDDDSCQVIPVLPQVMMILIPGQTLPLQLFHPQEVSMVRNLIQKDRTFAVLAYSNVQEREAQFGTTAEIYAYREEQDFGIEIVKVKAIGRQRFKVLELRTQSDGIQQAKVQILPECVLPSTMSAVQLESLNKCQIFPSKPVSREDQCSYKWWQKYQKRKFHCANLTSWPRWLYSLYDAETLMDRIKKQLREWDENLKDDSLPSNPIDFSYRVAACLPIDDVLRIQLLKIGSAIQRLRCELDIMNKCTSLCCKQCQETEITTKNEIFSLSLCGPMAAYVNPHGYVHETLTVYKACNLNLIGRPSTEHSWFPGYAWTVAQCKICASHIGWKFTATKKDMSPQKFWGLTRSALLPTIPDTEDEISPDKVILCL
T1 sequence (Q16531 whole entry partner): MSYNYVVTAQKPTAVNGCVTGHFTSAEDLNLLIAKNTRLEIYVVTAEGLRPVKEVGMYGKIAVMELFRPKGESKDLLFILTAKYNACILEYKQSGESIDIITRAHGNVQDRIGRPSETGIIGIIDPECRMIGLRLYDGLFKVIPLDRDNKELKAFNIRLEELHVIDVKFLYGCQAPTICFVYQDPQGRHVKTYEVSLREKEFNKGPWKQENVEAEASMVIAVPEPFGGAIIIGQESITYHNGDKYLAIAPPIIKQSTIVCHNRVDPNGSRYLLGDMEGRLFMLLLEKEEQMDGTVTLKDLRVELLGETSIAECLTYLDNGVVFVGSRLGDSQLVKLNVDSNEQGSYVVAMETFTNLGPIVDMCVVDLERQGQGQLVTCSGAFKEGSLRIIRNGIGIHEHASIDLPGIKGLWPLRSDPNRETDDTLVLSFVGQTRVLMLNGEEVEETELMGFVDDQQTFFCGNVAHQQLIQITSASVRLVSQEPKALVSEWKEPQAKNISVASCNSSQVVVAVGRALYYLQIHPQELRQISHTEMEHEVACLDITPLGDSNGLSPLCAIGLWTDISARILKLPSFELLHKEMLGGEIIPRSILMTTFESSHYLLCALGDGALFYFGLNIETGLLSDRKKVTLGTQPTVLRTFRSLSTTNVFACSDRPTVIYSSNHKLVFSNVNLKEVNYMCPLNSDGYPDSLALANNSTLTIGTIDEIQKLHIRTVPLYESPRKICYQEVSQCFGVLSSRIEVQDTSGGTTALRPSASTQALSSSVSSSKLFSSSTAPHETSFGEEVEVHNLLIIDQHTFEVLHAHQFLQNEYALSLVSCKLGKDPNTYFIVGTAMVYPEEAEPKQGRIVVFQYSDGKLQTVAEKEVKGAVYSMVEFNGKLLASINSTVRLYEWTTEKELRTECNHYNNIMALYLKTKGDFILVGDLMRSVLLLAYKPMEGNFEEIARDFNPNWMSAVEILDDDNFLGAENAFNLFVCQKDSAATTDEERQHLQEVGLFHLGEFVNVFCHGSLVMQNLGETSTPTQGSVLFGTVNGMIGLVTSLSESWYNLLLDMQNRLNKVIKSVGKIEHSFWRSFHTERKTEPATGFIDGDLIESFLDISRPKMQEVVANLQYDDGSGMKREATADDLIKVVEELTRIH

IKZF2 Helios = IKZF2 Helios (Homo sapiens, UniProt Q96SW2+Q9UKS7); parameters: endogenous in cells; host or cells: primary human CD4+CD127lowCD25+ Treg cells from healthy leukopaks
Sequence of IKZF2 Helios (Q9UKS7 whole entry): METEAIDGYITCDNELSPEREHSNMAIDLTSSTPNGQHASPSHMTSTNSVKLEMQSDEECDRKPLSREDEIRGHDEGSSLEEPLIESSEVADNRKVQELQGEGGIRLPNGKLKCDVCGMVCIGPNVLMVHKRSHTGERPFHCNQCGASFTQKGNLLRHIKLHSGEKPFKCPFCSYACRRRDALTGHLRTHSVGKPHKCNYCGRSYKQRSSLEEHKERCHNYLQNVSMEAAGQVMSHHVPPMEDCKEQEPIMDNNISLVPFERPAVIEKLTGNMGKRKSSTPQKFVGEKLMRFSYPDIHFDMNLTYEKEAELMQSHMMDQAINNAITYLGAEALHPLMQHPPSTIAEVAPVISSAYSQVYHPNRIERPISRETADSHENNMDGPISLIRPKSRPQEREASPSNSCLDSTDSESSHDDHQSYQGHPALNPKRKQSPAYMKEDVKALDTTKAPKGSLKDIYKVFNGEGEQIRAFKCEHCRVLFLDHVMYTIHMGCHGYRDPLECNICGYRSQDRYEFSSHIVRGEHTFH
Sequence of IKZF2 Helios (Q96SW2 whole entry): as the sequence (Q96SW2 whole entry) above
Sequence of IKZF2 Helios (Q16531 whole entry partner): as the sequence (Q16531 whole entry partner) above
Procedure: Cryopreserved human regulatory T cells were thawed in RPMI + 10%FBS + 20 ng/mL IL-2. After being spun at 1200 rpm for 5 mins, the cells were resuspended in RPMI + 10% FBS+ 20 ng/mL and rested at 37 °C with 5% CO2 for 3 hours. The cells were then plated at 40,000 cells/well in 40 µL RPMI + 10% FBS + 20 ng/mL human IL-2 in a 384 well cell culture plate prior to using acoustic dispensing technology (ECHO 555) for adding compounds of interest. Cell cultures were incubated for 20 hours at 37 °C and 5% CO2. In order to facilitate analysis, cell cultures were spun down at 1200 rpm for 5 minutes and the supernatant was discarded using an EL406 plate washer. After washing three times with 70 µL PBS, cell pellets were resuspended in 50 µL of near IR viability staining solution (Life Technologies, Cat# L34975) and incubated for 30 minutes on ice protected from light. Cells were washed three times with 70 µL PBS + 0.5% BSA using an EL406 plate washer. After shaking the plate to dislodge the cell pellet, cells were resuspended in 50 µL of Fixation Buffer (eBioScience FoxP3 buffer set 00-5523-00) for 60 minutes at room temperature. After centrifuging and discarding the supernatant, cells were permeabilized with 50 µL of permeabilization buffer (eBioScience FoxP3 buffer set 00-5523-00) for 10 minutes at room temperature. Following permeabilization, cells were spun down and the supernatant was replaced with 30 µL fluorescently labelled antibodies against the intracellular targets Helios (Helios-APC [BioLegend, Cat# 137222, 1:50]), Aiolos, and Ikaros lx Permeabilization buffer and staining reactions were incubated for 1 hour at room temperature; protected from light. Subsequently, 30 µL of lx Permeabilization buffer was added prior to centrifuging the cells and discarding the supernatant. Stained cells were resuspended in 30 µL of flow cytometry staining buffer (PBS + 0.5%BSA) and analyzed using an Intellicyt Ique Plus flow cytometer. TABLE B-1

IKZF3 Aiolos = IKZF3 Aiolos (Homo sapiens, UniProt Q96SW2+Q9UKT9); parameters: Foxp3-BV421, HELIOS-PE-Cy7, EOS-PE, IKAROS-PECF594, AIOLOS-AF647; endogenous in cells; host or cells: human PBMC from healthy donors (CD8+ T cells gated by flow cytometry)
Sequence of IKZF3 Aiolos (Q9UKT9 whole entry): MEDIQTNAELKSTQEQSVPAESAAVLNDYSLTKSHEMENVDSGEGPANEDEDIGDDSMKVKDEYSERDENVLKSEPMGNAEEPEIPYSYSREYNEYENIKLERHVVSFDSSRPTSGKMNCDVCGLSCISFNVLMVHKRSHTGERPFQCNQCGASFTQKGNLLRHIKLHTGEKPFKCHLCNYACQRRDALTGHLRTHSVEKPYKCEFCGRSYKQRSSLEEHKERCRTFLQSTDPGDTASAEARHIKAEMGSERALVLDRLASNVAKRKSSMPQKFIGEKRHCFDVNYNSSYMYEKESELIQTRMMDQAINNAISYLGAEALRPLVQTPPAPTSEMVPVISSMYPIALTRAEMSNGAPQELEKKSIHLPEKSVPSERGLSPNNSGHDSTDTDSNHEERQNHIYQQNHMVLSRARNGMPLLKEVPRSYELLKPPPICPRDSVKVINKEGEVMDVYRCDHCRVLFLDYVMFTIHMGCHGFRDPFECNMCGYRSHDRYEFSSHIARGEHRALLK
Sequence of IKZF3 Aiolos (Q96SW2 whole entry): as the sequence (Q96SW2 whole entry) above
Sequence of IKZF3 Aiolos (Q16531 whole entry partner): as the sequence (Q16531 whole entry partner) above

IKZF1 Ikaros = IKZF1 Ikaros (Homo sapiens, UniProt Q13422+Q96SW2); parameters: Foxp3-BV421, HELIOS-PE-Cy7, EOS-PE, IKAROS-PECF594, AIOLOS-AF647; endogenous in cells; host or cells: human PBMC from healthy donors (CD8+ T cells gated by flow cytometry)
Sequence of IKZF1 Ikaros (Q13422 whole entry): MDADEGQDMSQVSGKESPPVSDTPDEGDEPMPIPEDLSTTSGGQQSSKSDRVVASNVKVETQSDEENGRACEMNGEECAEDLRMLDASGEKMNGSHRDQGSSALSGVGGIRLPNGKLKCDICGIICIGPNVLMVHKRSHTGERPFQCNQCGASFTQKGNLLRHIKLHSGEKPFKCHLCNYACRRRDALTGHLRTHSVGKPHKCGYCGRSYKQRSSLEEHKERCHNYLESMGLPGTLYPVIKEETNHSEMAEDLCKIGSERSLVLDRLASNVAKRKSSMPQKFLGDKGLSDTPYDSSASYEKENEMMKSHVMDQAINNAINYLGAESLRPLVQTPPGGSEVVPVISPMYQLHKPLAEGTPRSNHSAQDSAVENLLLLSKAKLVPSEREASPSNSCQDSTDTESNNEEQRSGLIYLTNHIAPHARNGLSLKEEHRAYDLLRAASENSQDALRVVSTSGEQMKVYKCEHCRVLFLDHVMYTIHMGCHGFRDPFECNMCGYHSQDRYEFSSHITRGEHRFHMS
Sequence of IKZF1 Ikaros (Q96SW2 whole entry): as the sequence (Q96SW2 whole entry) above
Sequence of IKZF1 Ikaros (Q16531 whole entry partner): as the sequence (Q16531 whole entry partner) above

SMILES	IKZF4 Eos max % deg. observed (IKZF4 Eos) [%]	DC50 (IKZF4 Eos) [nM]	IKZF2 Helios max % deg. observed (IKZF2 Helios) [%]	DC50 (IKZF2 Helios) [nM]	IKZF3 Aiolos max % deg. observed (IKZF3 Aiolos) [%]	DC50 (IKZF3 Aiolos) [µM]	IKZF1 Ikaros max % deg. observed (IKZF1 Ikaros) [%]	DC50 (IKZF1 Ikaros) [µM]
Cc1cc(-c2ccc(-c3cn(C4CCC(=O)NC4=O)c(=O)o3)c(F)c2)nc(N)c1COC1CCOCC1 (stereo not shown) [Example 5, 3-(5-(4-(6-Amino-4-methyl-5-(((tetrahydro-2H-pyran-4-yl)oxy)methyl)pyridin-2-yl)-2-fluorophenyl)-2-oxooxazol-3(2H)-yl)piperidine-2,6-dione]	67	575	98	46	29	> 10	52	6.5
COC1CCN(Cc2ccc(-c3ccc(-c4cn(C5CCC(=O)NC5=O)c(=O)o4)c(F)c3)nc2N)CC1 (stereo not shown) [Example 4, 3-(5-(4-(6-amino-5-((4-methoxypiperidin-1-yl)methyl)pyridin-2-yl)-2-fluorophenyl)-2-oxooxazol-3(2H)-yl)piperidine-2,6-dione]	62	203	98	59	35	> 10	67	3.79
CO[C@H]1C[C@H](Oc2c(C)cc(-c3ccc(-c4cn(C5CCC(=O)NC5=O)c(=O)o4)c(F)c3)nc2N)C1 (relative stereo) [Example 2, trans 3-(5-(4-(6-amino-5-(3-methoxycyclobutoxy)-4-methylpyridin-2-yl)-2-fluorophenyl)-2-oxooxazol-3(2H)-yl)piperidine-2,6-dione]	62	193	98	71	25	> 100	56	0.95

Continued by falling DC50 (IKZF4 Eos), values first:

IKZF4 Eos max % deg. observed (IKZF4 Eos) [%]	DC50 (IKZF4 Eos) [nM]	IKZF2 Helios max % deg. observed (IKZF2 Helios) [%]	DC50 (IKZF2 Helios) [nM]	IKZF3 Aiolos max % deg. observed (IKZF3 Aiolos) [%]	DC50 (IKZF3 Aiolos) [µM]	IKZF1 Ikaros max % deg. observed (IKZF1 Ikaros) [%]	DC50 (IKZF1 Ikaros) [µM]	SMILES
59	141	98	51	25	> 10	58	6.47	Cc1cc(-c2ccc(-c3cn(C4CCC(=O)NC4=O)c(=O)o3)c(F)c2)nc(N)c1NCC1CCOCC1 (stereo not shown) [Example 3, 3-(5-(4-(6-amino-4-methyl-5-(((tetrahydro-2H-pyran-4-yl)methyl)amino)pyridin-2-yl)-2-fluorophenyl)-2-oxooxazol-3(2H)-yl)piperidine-2,6-dione]
56	55	98	52	22	> 10	51	8.23	CC1(C)Cc2cc(-c3ccc(-c4cn(C5CCC(=O)NC5=O)c(=O)o4)c(F)c3)nc(N)c2O1 (stereo not shown) [Example 1, 3-(5-(4-(7-amino-2,2-dimethyl-2,3-dihydrofuro[2,3-c]pyridin-5-yl)-2-fluorophenyl)-2-oxooxazol-3(2H)-yl)piperidine-2,6-dione]
